This is an account of results in US9595012B2, “Method for improving the environmental impact of formulated products” (Johnson & Johnson Consumer Inc., priority 2010, dated 2017).

Structures are written as SMILES.

One series relates to aquatic organisms. Nature of the series: Overall toxicity scoring (minimum organism-specific toxicity score). As to conditions: scale 0-100; minimum of the organism-specific scores. The procedure:
Using the linear scoring scale in Table 5 (below), each of the three organism L(E)C50 values (i.e., LC50 or EC50 values) are transformed to an organism-specific toxicity score for the ingredient. If the organism-specific toxicity score is based on an estimated L(E)C50 value rather than an empirical L(E)C50 value, that score is reduced by an uncertainty penalty (e.g., 5 points).
The overall ingredient toxicity score is determined as the minimum organism-specific toxicity score. If no score could be determined for one class of aquatic indicator organism (i.e., primary producer, primary consumer, secondary consumer), the overall ingredient toxicity score is reduced by an uncertainty penalty (e.g., 5 points). If no score could be determined for two classes of aquatic indicator organisms, the overall ingredient score is reduced by a larger uncertainty penalty (e.g., 10 points).
The process used for ingredients that are organic compounds is also used for ingredients that are inorganic compounds with the following exceptions: (1) only empirical data are considered, as models for predicting the aquatic toxicity of metals are not widely available; (2) the toxicity of the ingredient and all plausible environmental degradants are calculated. The lowest Toxicity score among the ingredient and its plausible environmental degradants is assigned as the final Toxicity score for the ingredient.

In series [1] the test system is fish. Conditions: 50% lethality, empirical acute study; cited from earlier work.
The subject of series [2] is water flea. Conditions: 50% immobilization, empirical acute study; cited from earlier work.
In series [3] the test system is algae. Description: Acute aquatic toxicity, aquatic plant/primary producer, 50% inhibition in growth rate. As to conditions: scale 0-100, from EC50 by Table 5.
Series [4] deals with water flea. Description: Acute aquatic toxicity, invertebrate/primary consumer, 50% immobilization. As to conditions: scale 0-100, from EC50 by Table 5.
Series [5] relates to fish. Description: Acute aquatic toxicity, vertebrate/secondary consumer, 50% lethality. As to conditions: scale 0-100, from LC50 by Table 5.
Series [6] deals with algae. As to conditions: 50% inhibition in growth rate, empirical acute study; cited from earlier work.

Consider `OCC(O)CO` [Glycerin], for which the Toxicity score in the series with aquatic organisms is reported as 100. Besides, the “Fish LC50” value in the series on fish [1] was 5,000 mg/L. Also, the “Invertebrate EC50” value in the series on water flea [2] is given as 10,000 mg/L. The “Aquatic Plant toxicity score” value in the series on algae [3] is 100. In the series with water flea [4], this compound yielded an Invertebrate toxicity score of 100. Moreover, the Fish toxicity score with fish [5] is recorded as 100. Further, the “Aquatic Plant EC50” value with algae [6] is given as 46,000 mg/L.
For `[Zn+2]` [Zn^2+], the Toxicity score entry with aquatic organisms is “zero”.
The same measure, in the same setting: next, `[O]=[Zn]` [zinc oxide]: “zero”.
